According to patent US20250122217A1, “ANHYDROUS CRYSTALLINE FORMS OF 2-((4S)-6-(4-CHLOROPHENYL)-1-METHYL-4H-BENZO[C]ISOXAZOLO[4,5-E]AZEPIN-4-YL)ACETAMIDE” (CONSTELLATION PHARMACEUTICALS. INC., priority 2022, published 2025):

Legend:
[1] = Competitive slurry experiments of crystalline forms, XRD readout; type: physicochemical; conditions: for water activities at which the form is thermodynamically stable: conclusion from the competitive slurries of Table 3; for XRD result of competitive slurry: about 5-7 days
Description: The following competitive slurry experiments were performed using inventive anhydrous Form B and monohydrate Form A disclosed in U.S. Pat. No. 9,969,747.
Aqueous mixtures were created and tested in duplicate for water activity at ambient temperature. Amorphous Pelabresib was used to create a saturated solution in the respective solvent. The supernatant was added to solids of monohydrate Form A and anhydrous Form B and allowed to stir at the respective temperature for about 5-7 days. In all samples except for the butanol:water mixture, a small quantity of Form C was also added to the competitive slurry. Form C can be prepared by slurring amorphous pelabresib in water:ethanol (90:10) for about 5 days The results of the competitive slurries are shown below in Table 3.

[2] = in vivo; set-up: species or system beagle dogs; conditions: male, beagle, dog, po, 5 mg/kg
Description: Single dose PK parameters in plasma were determined following oral gavage administration of micronized anhydrous Form B at 5 mg/kg to male beagle dogs (n=6/Group) in 0.5% (w/v) aqueous Methocel (4000 cps). The dose volume of PO groups was 2 mL/kg. For intravenous (0.5 mg/kg) and oral gavage (5 mg/kg), plasma samples were collected at the following time points: 0, 0.25, 0.5, 1, 2, 4, 6, 8, 12, 24 h post dose and analyzed. […] (5 mg/kg, 2.5 mg/mL, suspension).

[3] = Dynamic vapor sorption (DVS); type: physicochemical

SMILES	water activities at which the form is thermodynamically stable [1] [%]	AUC(0-t) [2] [ng·h/mL]	Cmax [2] [ng/mL]	Tmax [2] [h]	hygroscopicity by DVS ([3]; DVS profile, FIG. 3)	weight gain (DVS) ([3]; at 95% RH)	XRD result of competitive slurry ([1]; Form A + Form B (no Form C), 2-butanol:water (95:5), water activity 0.72, 40° C.)	XRD result of competitive slurry ([1]; Form A + Form B (no Form C), 2-butanol:water (95:5), water activity 0.72, RT)	XRD result of competitive slurry ([1]; Form A + Form B + small quantity of Form C, EtOH:water (90:10), water activity 0.54, 40° C.)	XRD result of competitive slurry ([1]; Form A + Form B + small quantity of Form C, EtOH:water (90:10), water activity 0.54, RT)	XRD result of competitive slurry ([1]; Form A + Form B + small quantity of Form C, IPA:water (98:2), water activity 0.27, 40° C.)	XRD result of competitive slurry ([1]; Form A + Form B + small quantity of Form C, IPA:water (98:2), water activity 0.27, RT)	XRD result of competitive slurry ([1]; Form A + Form B + small quantity of Form C, THF:water (10:90), water activity 0.97, 40° C.)	XRD result of competitive slurry ([1]; Form A + Form B + small quantity of Form C, THF:water (10:90), water activity 0.97, RT)
Cc1noc2c1-c1ccccc1C(c1ccc(Cl)cc1)=N[C@H]2CC(N)=O (single isomer, unassigned) [Form A, reference compound]	≥ 97													
Cc1noc2c1-c1ccccc1C(c1ccc(Cl)cc1)=N[C@H]2CC(N)=O (single isomer, unassigned) [Form B]	≤ 72	12100 ± 1450	1750 ± 225	1.17 ± 0.41	non-hygroscopic	about 0.5%								
Cc1noc2c1-c1ccccc1C(c1ccc(Cl)cc1)=N[C@H]2CC(N)=O [Pelabresib, 2-((4S)-6-(4-chlorophenyl)-1-methyl-4H-benzo[c]isoxazolo[4,5-e]azepin-4-yl)acetamide]							Form B	Form B	Form B	Form B	Form B + small peak	Form B	Form A	Form C
